Laboratory results reported in patent US20060058312A1, “Stabilized aqueous preparation for injection” (priority 2004, published 2006).

How the values were obtained:
[1] = Change of pH value of the aqueous solution during storage; assay type: physicochemical; settings: added to aqueous solution of the calcium salt, pH 6 to 7, during storage
[2] = Transmittance and coloring of the aqueous solution during storage; assay type: physicochemical; settings: added to aqueous solution of the calcium salt, during storage
Source text: The suppressing effect can be attained by the action of ascorbic acid which has been stabilized by sodium pyrosulfite.

suppression of the change of the pH value to the acid region [1]: effectively be suppressed | suppression of the lowering of the transmittance and the coloring [2]: effectively be suppressed
Structure (SMILES): O=C1O[C@H]([C@@H](O)CO)C(O)=C1O [ascorbic acid]
